According to article PMC6757277, “Structural Basis of Glycerophosphodiester Recognition by the Mycobacterium tuberculosis Substrate-Binding Protein UgpB” (ACS Chemical Biology, 2019):

Target: Mtb UgpB (Mycobacterium tuberculosis, UniProt P71619)
Experiment: biochemical

Mtb UgpB, sequence (P71619 entry or part of it): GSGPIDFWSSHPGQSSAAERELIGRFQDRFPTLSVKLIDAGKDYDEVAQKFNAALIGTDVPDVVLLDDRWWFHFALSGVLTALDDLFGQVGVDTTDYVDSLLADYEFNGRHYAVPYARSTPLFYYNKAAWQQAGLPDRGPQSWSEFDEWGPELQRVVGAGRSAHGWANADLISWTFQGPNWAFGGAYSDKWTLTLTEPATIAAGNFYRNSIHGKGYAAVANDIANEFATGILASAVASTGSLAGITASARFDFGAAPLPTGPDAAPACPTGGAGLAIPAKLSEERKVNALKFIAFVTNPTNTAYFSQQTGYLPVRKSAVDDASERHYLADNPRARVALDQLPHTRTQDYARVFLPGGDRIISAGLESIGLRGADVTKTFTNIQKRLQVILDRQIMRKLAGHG

| Compound | Kd [µM] |
| --- | --- |
| O=P(O)(O)O[C@H]1[C@H](O)[C@@H](O)[C@H](OP(=O)(O)OC[C@H](O)CO)[C@H](O)[C@@H]1O [GPI4P, glycerophosphoinositol-4-phosphate] | 290 ± 54.1 |
| O=P(O)(OC[C@H](O)CO)O[C@@H]1[C@H](O)[C@H](O)[C@@H](O)[C@H](O)[C@H]1O [GPI, glycerophosphoinositol] | 1050 ± 313 |
